Results published in patent US9938292B2 (GUANGDONG ZHONGSHENG PHARMACEUTICAL CO., LTD, priority 2014, dated 2018).
Like-named read-outs stand apart in the source and are kept apart here.

Test system: Hedgehog signaling pathway
Experiment: Gli-Luc luciferase reporter gene assay in C3H10T1/2/Gli-Luc cells under Shh-N stimulation
Type: cell-based
Conditions: luciferase RLU, read-out: biological activity: IC50 of the inhibitory activities of compounds on the hedgehog pathway
Method in brief: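 C3H10T1/2 cells stably carrying a Gli-responsive luciferase reporter were stimulated with 30 nM Shh-N conditioned medium plus compound (7-point dilutions, duplicate) for 24 h at 37 °C. Luciferase luminescence read from lysates; IC50 by sigmoidal fit of RLU versus log concentration.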

Structure (SMILES)	IC50 (Mus musculus, C3H 10T1/2, 24 h)	IC50 (24 h)
Cc1cn(-c2ccc(N3C[C@@H](C)O[C@@H](C)C3)cc2)c(=O)c2ccnc(-c3ccc(OC(F)(F)F)cc3)c12 [Embodiment 83]	1000 to 5000 nM	–
COc1c(-c2ccc(N3C[C@@H](C)O[C@H](C)C3)cc2)cnc2c(-c3ccc(C#N)cc3)cccc12 [Embodiment 112]	≤ 50 nM	–
COc1c(-c2ccc(N3C[C@@H](C)O[C@@H](C)C3)cc2Cl)cnc2c(-c3ccc(C#N)cc3)cccc12 [Embodiment 170]	≤ 50 nM	–
CC(C)c1c(-c2ccc(N3C[C@@H](C)O[C@@H](C)C3)nc2)cnc2c(-c3ccc(C#N)cc3)cccc12 [Embodiment 258, 4-(3-(6-((2S,6R)-2,6-dimethylmorpholino)pyridin-3-yl)-4-isopropylquinolin-8-yl) benzonitrile]	100 to 500 nM	–
C[C@@H]1CN(c2ccc(-c3cnc4c(-c5ccc(C#N)cc5)cccc4c3OC(F)F)cc2)C[C@H](C)O1 [Embodiment 145]	≤ 50 nM	–
CC(=O)Nc1c(-c2ccc(N3C[C@@H](C)O[C@@H](C)C3)cc2)cnc2c(-c3ccc(C#N)cc3)cccc12 [Embodiment 129, N-(8-(4-cyanophenyl)-3-(4-((2S,6R)-2,6-dimethylmorpholino)phenyl)quinolin-4-yl) acetamide]	50 to 100 nM	–
COc1c(-c2ccc(N3C[C@@H](C)N(C(=O)c4cccnc4)[C@@H](C)C3)cc2)cnc2c(-c3ccc(C#N)cc3)cccc12 [Embodiment 200]	≤ 50 nM	–
C[C@@H]1CN(c2ccc(-n3ccc4c(-c5ccc(OC(F)(F)F)cc5)cccc4c3=O)cc2)C[C@H](C)O1 [Embodiment 75]	1000 to 5000 nM	–
C[C@@H]1CN(c2ccc(-n3ccc4c(-c5ccc(C#N)cc5)cccc4c3=O)cc2C2CC2)C[C@H](C)O1 [Embodiment 80, 4-(2-(3-cyclopropyl-4-((2S,6R)-2,6-dimethylmorpholino)phenyl)-1-oxo-1,2-dihydroisoquinolin-5-yl)benzonitrile]	1000 to 5000 nM	–
C[C@@H]1CN(c2ccc(-c3cnc4c(-c5ccc(C#N)cc5)cccc4c3C3CC3)cn2)C[C@H](C)O1 [Embodiment 134]	≤ 50 nM	–
Cc1cn(-c2ccc(N3CC(C)N(C(=O)OC(C)C)C(C)C3)cc2)c(=O)c2cccc(-c3ccc(C#N)cc3)c12 (stereo not shown) [Embodiment 29]	100 to 500 nM	–
COc1c(-c2ccc(N3C[C@@H](C)O[C@@H](C)C3)nc2)cnc2c(-c3ccc(C)nc3)cccc12 [Embodiment 163]	100 to 500 nM	–
Cc1cn(-c2ccc(N3CCN(c4nsc5ccccc45)CC3)cc2)c(=O)c2cccc(-c3ccc(C#N)cc3)c12 [Embodiment 13]	100 to 500 nM	–
Cc1cn(-c2ccc(N3C[C@@H](C)N(C(=O)c4ccccc4)[C@H](C)C3)cc2)c(=O)c2cccc(-c3ccc(C#N)cc3)c12 [Embodiment 21]	–	100 to 500 nM
COc1c(-c2ccc(N3C[C@@H](C)O[C@@H](C)C3)cc2)cnc2c(-c3ccc(OC(F)(F)F)cc3)cc(F)cc12 [Embodiment 137]	100 to 500 nM	–
COc1c(N2CC[C@@H](N3C[C@@H](C)O[C@@H](C)C3)[C@@H](F)C2)cnc2c(-c3ccc(C#N)cc3)cccc12 [Embodiment 233, 4-(3-(4-(2,6-dimethylmorpholino-4-yl)-3-fluoropiperidin-1-yl)-4-methoxyquinolin-8-yl)benzonitrile]	≤ 50 nM	–
COc1c(-c2ccc(N3C[C@@H](C)O[C@@H](C)C3)nc2)cnc2c(-c3ccc(OC(F)(F)F)cc3)cccc12 [Embodiment 160]	≤ 50 nM	–
C[C@@H]1CN(c2ccc(-c3cnc4c(-c5ccc(C#N)cc5)cccc4c3N(C)C)cc2)C[C@H](C)O1 [Embodiment 119, 4-(4-(dimethylamino)-3-(4-((2S,6R)-2,6-dimethylmorpholino)phenyl)quinolin-8-yl) benzonitrile]	50 to 100 nM	–
CCOC(=O)N1[C@H](C)CN(c2ccc(-n3cc(C)c4c(-c5ccc(C#N)cc5)cccc4c3=O)cc2)C[C@H]1C [Embodiment 20]	100 to 500 nM	–
COc1c(-c2ccc(N3C[C@@H](C(C)(C)O)O[C@@H](C)C3)cc2)cnc2c(-c3ccc(C#N)cc3)cccc12 [Embodiment 192, 4-(3-(4-((2S, 6S)-2-(2-hydroxypropan-2-yl)-6-methylmorpholino)phenyl)-4-methoxyquinolin-8-yl)benzonitrile]	≤ 50 nM	–

Structure (SMILES)	IC50 (Mus musculus, C3H 10T1/2, 24 h)	IC50 (24 h)
COc1c(-c2ccc(N3C[C@@H](C)O[C@@H](C)C3)cc2)c(C(F)(F)F)nc2c(-c3ccc(C#N)cc3)cccc12 [Embodiment 141, 4-(3-(4-((2S,6R)-2,6-dimethylmorpholino)phenyl)-4-methoxy-2-(trifluoromethyl)quinolin-8-yl)benzonitrile]	100 to 500 nM	–
COc1c(-c2ccc(N3C[C@@H](C)O[C@@H](C)C3)cc2)cnc2c(-c3ccc(C(F)(F)F)cc3)cccc12 [Embodiment 89, (2R,6S)-4-(4-(4-methoxy-8-(4-(trifluoromethyl)phenyl)quinolin-3-yl)phenyl)-2,6-dimethylmorpholine]	≤ 50 nM	–
COc1c(N2CCN(c3ccc(C(C)(C)O)cn3)CC2=O)cnc2c(-c3ccc(C#N)cc3)cccc12 [Embodiment 252, 4-(3-(4-(5-(2-hydroxypropan-2-yl)pyridin-2-yl)-2-oxopiperazin-1-yl-4-methoxyquinolin-8-yl))benzonitrile]	100 to 500 nM	–
COc1c(-c2ccc(N3C[C@@H](C)O[C@@H](C)C3)cc2)cnc2c(-c3ccc(Cl)nc3)cccc12 [Embodiment 95]	≤ 50 nM	–
C[C@@H]1CN([C@@H]2CCN(c3cnc4c(-c5ccc(C#N)cc5)cccc4c3C3CC3)C[C@@H]2F)C[C@H](C)O1 [Embodiment 269, 4-(4-cyclopropyl-3-((3S,4R)-4-((2S,6R)-2,6-dimethylmorpholino)-3-fluoropiperidin-1-yl)quinolin-8-yl)benzonitrile]	≤ 50 nM	–
Cc1cn(-c2ccc(N3C[C@@H](C)O[C@@H](C)C3)cc2)c(=O)c2cncc(-c3ccc(C#N)cc3)c12 [Embodiment 86, 4-(7-(4-((2S,6R)-2,6-dimethylmorpholino)phenyl)-5-methyl-8-oxo-7,8-dihydro-2,7-naphthyridin-4-yl)benzonitrile]	500 to 1000 nM	–
COc1c(-c2cnc(N3C[C@@H](C)O[C@@H](C)C3)cn2)cnc2c(-c3ccc(C#N)cc3)cccc12 [Embodiment 177]	–	≤ 50 nM
CC(C)c1ccc(N2CCN(c3cnc4c(-c5ccc(C#N)cc5)cccc4c3C3CC3)CC2)nc1 [Embodiment 261, 4-(4-((4-cyclopropyl-35-isopropylpyridin-2-yl)-3-)-quinolin-8-yl)benzonitrile]	100 to 500 nM	–
COC(=O)N1[C@H](C)CN(c2ccc(-c3cnc4c(-c5ccc(C#N)cc5)cccc4c3OC)cn2)C[C@@H]1C [Embodiment 196]	100 to 500 nM	–
CCC(=O)N1[C@H](C)CN(c2ccc(NC(=O)c3cnc4c(-c5ccc(C#N)cc5)cccc4c3C3CC3)cn2)C[C@@H]1C [Embodiment 246]	–	≤ 50 nM
COc1c(N2CCC(N3CCCC3)CC2)cnc2c(-c3ccc(C#N)cc3)cccc12 [Embodiment 268, 4-(4-methoxy-3-(4-(pyrrolidin-1-yl)piperidin-1-yl)quinolin-8-yl)benzonitrile]	100 to 500 nM	–
COc1c(-c2ccc(N3C[C@@H](C)O[C@@H](C)C3)cc2)cnc2c1CCCC2(OC)c1ccc(C#N)cc1 (stereo partly drawn) [Embodiment 157, 4-(3-(4-((2S,6R)-2,6-dimethylmorpholino)phenyl)-4,8-dimethoxy-5,6,7,8-tetrahydroquinolin-8-yl)benzonitrile]	1000 to 5000 nM	–
CC(C)(O)c1ccc(N2CCN(c3cnc4c(-c5ccc(C#N)cc5)cccc4c3C3CC3)CC2=O)nc1 [Embodiment 236, 4-(4-cyclopropyl-3-(4-(5-(1-hydroxy-1-methyl-ethyl)pyridin-2-yl)-3-oxo-piperazin-1-yl)quinolin-8-yl)benzonitrile]	≤ 50 nM	–
C[C@@H]1CN(c2ccc(-c3cnc4c(-c5ccc(C#N)cc5)cccc4c3N3CCC3)cn2)C[C@H](C)O1 [Embodiment 139, 4-(4-(azetidin-1-yl)-3-(6-((2S,6R)-2,6-dimethylmorpholino)pyridin-3-yl)quinolin-8-yl) benzonitrile]	50 to 100 nM	–
Cc1c(-c2ccc(N3C[C@@H](C)O[C@@H](C)C3)nc2)cnc2c(-c3ccc(C#N)cc3)cccc12 [Embodiment 132, 4-(3-(6-((2S,6R)-2,6-dimethylmorpholino)pyridin-3-yl)-4-methylquinolin-8-yl) benzonitrile]	≤ 50 nM	–
COc1c(N2CCn3c(nnc3C(F)(F)F)C2)cnc2c(-c3ccc(C#N)cc3)cccc12 [Embodiment 247, 4-(4-methoxy-3-(3-trifluoromethyl-5,6-dihydro-8H-[1,2,4]triazolo[4,3-a]pyrazin-7-yl)quinolin-8-yl)benzonitrile]	100 to 500 nM	–
Cc1cn(-c2ccc(N3CCN4C(=O)CC[C@H]4C3)cc2)c(=O)c2cccc(-c3ccc(C#N)cc3)c12 [Embodiment 40, (S)-4-(4-methyl-1-oxo-2-(4-(6-oxo-hexahydropyrrolo[1,2-a]pyrazin-2(1H)-yl)phenyl)-1,2-dihydroisoquinolin-5-yl)benzonitrile]	≤ 50 nM	–
COc1c(-c2ccc(N3CC(C)N(C(C)=O)C(C(C)(C)O)C3)cc2)cnc2c(-c3ccc(C#N)cc3)cccc12 (stereo not shown) [Embodiment 191, 4-(3-(4-(4-acetyl-3-(2-hydroxypropan-2-yl)-5-methylpiperazin-1-yl)phenyl)-4-methoxyquinolin-8-yl)benzonitrile]	≤ 50 nM	–
Cc1cn(-c2ccc(N3C[C@@H](C)O[C@@H](C)C3)cc2)c(=O)c2cccc(-c3ccccc3C#N)c12 [Embodiment 64]	500 to 1000 nM	–
Cc1cn(-c2ccc(N3C[C@@H](C)O[C@@H](C)C3)cc2)c(=O)c2cccc(-c3ccoc3)c12 [Embodiment 43, 2-(4-((2S,6R)-2,6-dimethylmorpholino)phenyl)-5-(furan-3-yl)-4-methylisoquinolin-1(2H)-one]	1000 to 5000 nM	–
